Data taken from patent publication US9051270B2, “Pyridone amides as modulators of sodium channels” (Vertex Pharmaceuticals Incorporated, priority 2013, dated 2015).

Assays:
[1] = target: human Nav1.8 (Homo sapiens (Human), UniProt Q9Y5Y9); assay: E-VIPR optical membrane potential assay with electrical stimulation; format: cell-based; details: HEK cells expressing human Nav1.8
[2] = Microsomal stability assay, human liver microsomes (HLM); format: in vitro ADME; details: human liver microsomes 0.5 mg/mL, 1 uM substrate, 2 mM NADPH, 37° C., referenced against time zero control
Experimental: (§1) Microsomal Stability Assay.
(§2) Compounds were incubated at 37° C. and shaken for 30 minutes in a phosphate buffered solution with either rat or human liver microsomes and the cofactor NADPH. A time zero control was similarly prepared, however with NADPH excluded. The final incubation concentrations were 1 uM substrate (0.2% DMSO), 0.5 mg/mL liver microsome, 2 mM NADPH, and 0.1 M phosphate. Reactions were quenched and proteins precipitated with the addition of 2 volume equivalents of ice cold acetonitrile containing an internal standard. Following a centrifugation step, aliquots from the quenched incubations were further diluted with 4 volume equivalents of a 50% aqueous methanol solution and then subjected to LC/MS/MS analysis for quantitation of parent compound. Microsome stability values were calculated as the percent of substrate remaining after 30 minutes referenced against the time zero control.
(§3) Microsomal stability in rat and human liver microsomes were determined for selected compounds of the present invention using the above assay. Table 4 provides the human liver microsomes (“HLM”) and rat liver microsomes (“RLM”) stability data as the percent of compound remaining after 30 minutes referenced against the time zero control.

[3] = Microsomal stability assay, rat liver microsomes (RLM); format: in vitro ADME; details: rat liver microsomes 0.5 mg/mL, 1 uM substrate, 2 mM NADPH, 37° C., referenced against time zero control
Experimental: as §1, §2, §3

Sequence of human Nav1.8 (Q9Y5Y9 whole entry): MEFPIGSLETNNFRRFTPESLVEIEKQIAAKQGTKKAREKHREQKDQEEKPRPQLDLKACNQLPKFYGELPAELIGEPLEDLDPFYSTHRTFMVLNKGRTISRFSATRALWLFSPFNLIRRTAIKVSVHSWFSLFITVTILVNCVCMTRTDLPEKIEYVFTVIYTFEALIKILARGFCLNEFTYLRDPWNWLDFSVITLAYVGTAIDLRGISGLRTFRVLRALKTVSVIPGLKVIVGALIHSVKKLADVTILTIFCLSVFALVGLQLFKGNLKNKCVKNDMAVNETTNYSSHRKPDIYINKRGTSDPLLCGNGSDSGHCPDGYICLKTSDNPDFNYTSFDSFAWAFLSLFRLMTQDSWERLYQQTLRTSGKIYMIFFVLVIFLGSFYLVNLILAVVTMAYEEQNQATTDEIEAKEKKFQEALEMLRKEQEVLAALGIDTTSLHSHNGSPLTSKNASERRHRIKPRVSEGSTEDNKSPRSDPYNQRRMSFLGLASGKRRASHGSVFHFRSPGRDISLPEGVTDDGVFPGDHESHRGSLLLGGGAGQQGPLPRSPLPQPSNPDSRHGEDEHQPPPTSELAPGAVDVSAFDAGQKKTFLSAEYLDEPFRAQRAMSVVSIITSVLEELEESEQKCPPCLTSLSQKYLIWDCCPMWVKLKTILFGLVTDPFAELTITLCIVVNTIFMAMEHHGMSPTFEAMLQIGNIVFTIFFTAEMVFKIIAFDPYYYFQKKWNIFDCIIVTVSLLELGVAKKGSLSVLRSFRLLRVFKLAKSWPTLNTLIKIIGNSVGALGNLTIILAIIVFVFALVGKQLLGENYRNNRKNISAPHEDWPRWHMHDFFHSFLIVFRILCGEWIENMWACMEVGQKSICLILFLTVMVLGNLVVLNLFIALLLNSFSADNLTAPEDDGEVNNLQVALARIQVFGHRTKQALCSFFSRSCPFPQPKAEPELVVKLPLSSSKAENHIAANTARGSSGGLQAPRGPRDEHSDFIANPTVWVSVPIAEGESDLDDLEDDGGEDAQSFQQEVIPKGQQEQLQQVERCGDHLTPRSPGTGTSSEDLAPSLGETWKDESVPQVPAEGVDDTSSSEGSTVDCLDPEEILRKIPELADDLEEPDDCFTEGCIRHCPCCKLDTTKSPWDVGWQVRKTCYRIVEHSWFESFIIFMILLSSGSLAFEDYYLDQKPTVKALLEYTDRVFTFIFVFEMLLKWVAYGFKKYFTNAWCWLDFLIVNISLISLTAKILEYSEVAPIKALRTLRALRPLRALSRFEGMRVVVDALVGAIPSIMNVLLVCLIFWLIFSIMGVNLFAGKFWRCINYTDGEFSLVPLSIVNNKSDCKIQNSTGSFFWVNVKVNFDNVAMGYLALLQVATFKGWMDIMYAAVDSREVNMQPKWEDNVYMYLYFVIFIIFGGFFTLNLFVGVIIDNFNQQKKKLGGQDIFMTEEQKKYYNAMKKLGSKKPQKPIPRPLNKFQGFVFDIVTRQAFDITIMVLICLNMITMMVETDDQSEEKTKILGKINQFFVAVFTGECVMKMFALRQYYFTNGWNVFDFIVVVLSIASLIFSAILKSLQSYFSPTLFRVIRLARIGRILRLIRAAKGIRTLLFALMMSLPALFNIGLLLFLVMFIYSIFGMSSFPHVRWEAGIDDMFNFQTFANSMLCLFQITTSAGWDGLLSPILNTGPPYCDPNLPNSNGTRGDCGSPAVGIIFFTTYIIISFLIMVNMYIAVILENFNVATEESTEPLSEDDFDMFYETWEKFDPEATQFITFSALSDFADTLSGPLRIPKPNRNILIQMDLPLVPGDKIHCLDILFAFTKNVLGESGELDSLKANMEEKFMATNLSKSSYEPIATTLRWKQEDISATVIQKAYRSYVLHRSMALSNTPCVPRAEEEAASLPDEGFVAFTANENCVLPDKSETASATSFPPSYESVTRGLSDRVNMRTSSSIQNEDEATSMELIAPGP

SMILES	IC50 [1] [nM]	HLM (% remaining @ 30 minutes) [2] [%]	RLM (% remaining @ 30 minutes) [3] [%]
O=C(Nc1cc[nH]c(=O)c1)c1cc(OC(F)(F)F)ccc1Oc1ccc(F)cc1Cl [Compound 37, 2-(2-chloro-4-fluorophenoxy)-N-(2-oxo-1,2-dihydropyridin-4-yl)-5-(trifluoromethoxy)benzamide]	51	100	97
O=C(Nc1cc[nH]c(=O)c1)c1ccc(C(F)(F)F)cc1OCCCC(F)(F)F [Compound 123, N-(2-oxo-1,2-dihydropyridin-4-yl)-2-(4,4,4-trifluorobutoxy)-4-(trifluoromethyl)benzamide]	355	103	98
O=C(Nc1cc[nH]c(=O)c1)c1cc(C(F)(F)F)ccc1Oc1ccccc1OC(F)F [Compound 76, 2-(2-(difluoromethoxy)phenoxy)-N-(2-oxo-1,2-dihydropyridin-4-yl)-5-(trifluoromethyl)benzamide]	54	97	93
COCCOc1ccc(Oc2cc(C(F)(F)F)ccc2C(=O)Nc2cc[nH]c(=O)c2)cc1 [Compound 8, 2-(4-(2-methoxyethoxy)phenoxy)-N-(2-oxo-1,2-dihydropyridin-4-yl)-4-(trifluoromethyl)benzamide]	330	90	86
O=C(Nc1cc[nH]c(=O)c1)c1cc(C(F)(F)F)ccc1Oc1ccccc1OC(F)(F)F [Compound 75, N-(2-oxo-1,2-dihydropyridin-4-yl)-2-(2-(trifluoromethoxy)phenoxy)-5-(trifluoromethyl)benzamide]	51	90	95
O=C(Nc1cc[nH]c(=O)c1)c1cc(OC(F)(F)F)ccc1Oc1ccc(F)cc1F [Compound 33, 2-(2,4-difluorophenoxy)-N-(2-oxo-1,2-dihydropyridin-4-yl)-5-(trifluoromethoxy)benzamide]	95	100	110
Cc1cc(F)ccc1Oc1ccc(C(F)(F)F)cc1C(=O)Nc1cc[nH]c(=O)c1 [Compound 31, 2-(4-fluoro-2-methylphenoxy)-N-(2-oxo-1,2-dihydropyridin-4-yl)-5-(trifluoromethyl)benzamide]	17	92	91
O=C(Nc1cc[nH]c(=O)c1)c1cc(F)ccc1Oc1ccc(OC(F)(F)F)cc1 [Compound 101, 5-fluoro-N-(2-oxo-1,2-dihydropyridin-4-yl)-2-(4-(trifluoromethoxy)phenoxy)benzamide]	120	97	89
O=C(Nc1cc[nH]c(=O)c1)c1ccc(C(F)(F)F)cc1Oc1ccc(F)cc1CO [Compound 157, 2-(4-fluoro-2-(hydroxymethyl)phenoxy)-N-(2-oxo-1,2-dihydropyridin-4-yl)-4-(trifluoromethyl)benzamide]	58	101.5	102
O=C(Nc1cc[nH]c(=O)c1)c1cc(C(F)(F)F)ccc1Oc1ccc(F)cc1 [Compound 2, 2-(4-fluorophenoxy)-N-(2-oxo-1,2-dihydropyridin-4-yl)-5-(trifluoromethyl)benzamide]	54	100	104
O=C(Nc1cc[nH]c(=O)c1)c1ccc(C(F)(F)F)cc1OCC1CCCC1 [Compound 120, 2-(cyclopentylmethoxy)-N-(2-oxo-1,2-dihydropyridin-4-yl)-4-(trifluoromethyl)benzamide]	150	87	79
CC(C)(C)c1ccc(C(=O)Nc2ccc(=O)[nH]c2)c(Oc2ccc(C(F)(F)F)nc2)c1 [Compound 142, 4-(tert-butyl)-N-(6-oxo-1,6-dihydropyridin-3-yl)-2-((6-(trifluoromethyl)pyridin-3-yl)oxy)benzamide]	653	38	50

Further molecules by falling IC50 [1], results first:

IC50 [1] [nM]	HLM (% remaining @ 30 minutes) [2] [%]	RLM (% remaining @ 30 minutes) [3] [%]	SMILES
50	97	99	O=C(Nc1cc[nH]c(=O)c1)c1ccc(C(F)(F)F)cc1Oc1ccc(F)cc1F [Compound 7, 2-(2,4-difluorophenoxy)-N-(2-oxo-1,2-dihydropyridin-4-yl)-4-(trifluoromethyl)benzamide]
44	79	70	Cc1ccccc1Oc1ccc(C(F)(F)F)cc1C(=O)Nc1cc[nH]c(=O)c1 [Compound 28, N-(2-oxo-1,2-dihydropyridin-4-yl)-2-(o-tolyloxy)-5-(trifluoromethyl)benzamide]
37	100	106	O=C(Nc1cc[nH]c(=O)c1)c1cc(Cl)ccc1Oc1ccc(F)cc1Cl [Compound 66, 5-chloro-2-(2-chloro-4-fluorophenoxy)-N-(2-oxo-1,2-dihydropyridin-4-yl)benzamide]
36	101	98	O=C(Nc1cc[nH]c(=O)c1)c1ccc(C(F)(F)F)cc1Oc1ccc(OC(F)F)cc1 [Compound 82, 2-(4-(difluoromethoxy)phenoxy)-N-(2-oxo-1,2-dihydropyridin-4-yl)-4-(trifluoromethyl)benzamide]
30	104	88	Cc1cc(F)ccc1Oc1cc(Cl)ccc1C(=O)Nc1cc[nH]c(=O)c1 [Compound 20, 4-chloro-2-(4-fluoro-2-methylphenoxy)-N-(2-oxo-1,2-dihydropyridin-4-yl)benzamide]
28	107	107	O=C(Nc1cc[nH]c(=O)c1)c1cc(C(F)(F)F)ccc1Oc1ccc(F)cc1Cl [Compound 29, 2-(2-chloro-4-fluorophenoxy)-N-(2-oxo-1,2-dihydropyridin-4-yl)-5-(trifluoromethyl)benzamide]
26	101	104	O=C(Nc1cc[nH]c(=O)c1)c1cc(C(F)(F)F)ccc1Oc1ccc(F)c(F)c1F [Compound 90, N-(2-oxo-1,2-dihydropyridin-4-yl)-5-(trifluoromethyl)-2-(2,3,4-trifluorophenoxy)benzamide]
20	93	84	CCOc1ccc(Oc2ccc(C(F)(F)F)cc2C(=O)Nc2cc[nH]c(=O)c2)cc1 [Compound 44, 2-(4-ethoxyphenoxy)-N-(2-oxo-1,2-dihydropyridin-4-yl)-5-(trifluoromethyl)benzamide]
19	103	100	O=C(Nc1cc[nH]c(=O)c1)c1cc(F)c(Cl)cc1Oc1ccc(F)cc1Cl [Compound 109, 4-chloro-2-(2-chloro-4-fluorophenoxy)-5-fluoro-N-(2-oxo-1,2-dihydropyridin-4-yl)benzamide]
13	100	95.5	O=C(Nc1cc[nH]c(=O)c1)c1cc(C(F)(F)F)ccc1Oc1ccc(OC(F)(F)F)cc1 [Compound 72, N-(2-oxo-1,2-dihydropyridin-4-yl)-2-(4-(trifluoromethoxy)phenoxy)-5-(trifluoromethyl)benzamide]
12	100	102	O=C(Nc1cc[nH]c(=O)c1)c1ccc(C(F)(F)C(F)(F)F)cc1Oc1ccc(F)cc1 [Compound 88, 2-(4-fluorophenoxy)-N-(2-oxo-1,2-dihydropyridin-4-yl)-4-(perfluoroethyl)benzamide]
7	102	95	COc1ccc(Oc2cc(Cl)c(Cl)cc2C(=O)Nc2cc[nH]c(=O)c2)cc1F [Compound 115, 4,5-dichloro-2-(3-fluoro-4-methoxyphenoxy)-N-(2-oxo-1,2-dihydropyridin-4-yl)benzamide]
6	105	102	O=C(Nc1cc[nH]c(=O)c1)c1cc(Cl)c(Cl)cc1Oc1ccc(F)cc1 [Compound 113, 4,5-dichloro-2-(4-fluorophenoxy)-N-(2-oxo-1,2-dihydropyridin-4-yl)benzamide]
3	91	90	COc1cc(F)ccc1Oc1cc(C(F)(F)C(F)(F)F)ccc1C(=O)Nc1cc[nH]c(=O)c1 [Compound 111, 2-(4-fluoro-2-methoxyphenoxy)-N-(2-oxo-1,2-dihydropyridin-4-yl)-4-(perfluoroethyl)benzamide]
1	91	82	COc1cc(F)ccc1Oc1cc(Cl)c(Cl)cc1C(=O)Nc1cc[nH]c(=O)c1 [Compound 114, 4,5-dichloro-2-(4-fluoro-2-methoxyphenoxy)-N-(2-oxo-1,2-dihydropyridin-4-yl)benzamide]
